Source: US4387086A, “Organic compounds” (Sandoz Ltd., priority 1979, dated 1983)

Each compound was assayed on antiserum of Example 4 (assay: Cross-reactivity of the antiserum: inhibition by 50% of the reaction between antibody (antiserum) and tracer antigen (tritiated thioridazine)). Settings: relative to thioridazine; tracer tritiated thioridazine.
Assay type: binding, sheep
Text: The selectivity of the method can be determined as follows.
The main metabolites of thioridazine having a structure closely related to the parent compound are thioridazine-derivatives oxidized in the 2-methylthio side chain, more specifically the sulfoxide (A) and the sulfone (B), and also demethyl-thioridazine (C). The cross-reactivity of the antiserum was examined by employing a mixture of thioridazine, its sulfoxide A and sulfone B and its demethyl-thioridazine C in the amount required to inhibit the reaction between antibody (antiserum) and tracer antigen (tritiated thioridazine) by 50%.
In the case of `CN1CCCCC1CCN1c2ccccc2Sc2ccc([S+](C)[O-])cc21` (stereo not drawn) [A], the “inhibitory concentration where 50% binding to the antiserum of Example 4 occurs, times higher than that of the parent compound” value is reported as 67 times. `CN1CCCCC1CCN1c2ccccc2Sc2ccc(S(C)(=O)=O)cc21` (stereo not drawn) [B] was tested, and the “inhibitory concentration where 50% binding to the antiserum of Example 4 occurs, times higher than that of the parent compound” value was 93 times. `CSc1ccc2c(c1)N(CCC1CCCCN1)c1ccccc1S2` (stereo not drawn) [C, demethyl-thioridazine] was tested, and the “inhibitory concentration where 50% binding to the antiserum of Example 4 occurs, times higher than that of the parent compound” value was 111 times.
